3 compounds from US6379655B1, “Photoprotective/cosmetic compositions comprising aminoamidine sunscreens” (Societe l'Oreal S.A., priority 1999, dated 2002) can be followed below.

The structures appear in SMILES notation.

Series [1] in a line: UV absorption (sunscreening properties) in ethanol. The format is physicochemical. The text has this:
This compound had the following sunscreening properties:
spectral domain where ε is greater than 10,000: 297 to 377 nm.

The nature of series [2]: photostability protocol for cosmetic UV filters. The format is physicochemical. The conditions noted are these: protocol of Inter. J. Cosm. Sci., 1996, 18, 167-177. The source says:
Loss of 5% after subjecting to the photostability protocol (according to BERST G., GONZPNBACH H., CHRIST R., MARTIN R., DEFLANDRE A., MASCOTTO R. E., JOLLEY J. D. R., LOWELL W., PELZER R., STIEHM T., Inter. J. Cosm.Sci., 1996, 18, 167-177. Proposed protocol for determination of photostability Part I: cosmetic UV filters).

In series [1], `N/C(=N\N=C\c1ccccc1O)c1cnccn1` [Compound 52, N′-[(E)-2-hydroxyphenylmethylidene]pyrazinecarbohydrazonamide] gave an E1% of 1010 and a λmax of 354.2 nm.
In the same order, the values of `N/C(=N\N=C\c1ccoc1)c1cnccn1` [Compound 70, N′-[(E)-3-furylmethylidene]-2-pyrazinecarbohydrazonamide] are 832 and 335 nm.
With `N/C(=N\N=C\c1cccnc1)c1cnccn1` [Compound 76, N′-[(E)-3-pyridinylmethylidene]-2-pyrazinecarbohydrazonamide], the “Loss after subjecting to the photostability protocol” value in series [2] came to 5%. In series [1], this compound yielded an E1% of 1016 and a λmax of 341 nm.
